Results from patent USRE48461E1, “Modulation of androgen receptor expression” (Ionis Pharmaceuticals, Inc., priority 2012, dated 2021).
Oligonucleotides are written 5' to 3', each unit as a sugar letter and its base; * is a phosphorothioate linkage, no mark a phosphodiester; rarer units and linkages stand in square brackets, end groups in braces. Plain capitals give the bases only. e = 2'-O-(2-methoxyethyl) (MOE); k = constrained ethyl (cEt); [5mC] = 5-methylcytosine; d = 2'-deoxy (DNA)

How the values were obtained:
AR mRNA [1] = test: Dose-dependent antisense inhibition of human AR in HuVEC cells (electroporation, qRT-PCR RTS3559, IC50); format: cell-based; settings: for inhibition of AR mRNA at 46.9 nM: 46.9 nM ASO; for inhibition of AR mRNA at 187.5 nM: 187.5 nM ASO; for inhibition of AR mRNA at 750.0 nM: 750.0 nM ASO; for inhibition of AR mRNA at 3000.0 nM: 3000.0 nM ASO
Method in brief: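 HuVEC cells dosed with antisense oligonucleotides by electroporation and treated approximately 16 hours. AR mRNA quantified by real-time qPCR with primer probe set RTS3559 and normalised to total RNA by RIBOGREEN; IC50 from dose-response.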

AR mRNA [2] = test: AR mRNA in LnCaP cells by free uptake (hAR_LTS00943); format: cell-based, human; settings: 24 hrs
Description: Cells were plated at a concentration of 4,000 cells/well in 96-well plates. ISIS oligonucleotides, specified in Table 68, were added individually at 0.02 μM, 0.10 μM, 0.50 μM, 2.50 μM, or 10.00 μM. After an incubation period of 24 hrs, mRNA levels were measured using primer probe set hAR_LTS00943.

AR mRNA [3] = test: AR mRNA in liver, heart, skeletal muscle, kidney, prostate of cynomolgus monkeys; format: in vivo; settings: cynomolgus monkey, 40 mg/kg subcutaneously
Description: Cynomolgus monkeys were treated with ISIS antisense oligonucleotides selected from studies described above. Antisense oligonucleotide efficacy and tolerability were evaluated. The human antisense oligonucleotides tested are cross-reactive with the rhesus genomic sequence (GENBANK Accession No. NW_001218131.1 truncated from nucleotides 134001 to 308000 and designated herein as SEQ ID NO: 189). The target start site and target region of each oligonucleotide to SEQ ID NO: 189, as well as the details of their chemistry and sequence, is presented in Table 133.
RNA was extracted from liver, heart, skeletal muscle, kidney, and prostate tissues for real-time PCR analysis of AR using primer probe set RTS3559. The results were normalized to RIBOGREEN®. Results are presented as percent inhibition of AR mRNA, relative to PBS control.

AR mRNA [4] = test: Antisense inhibition of human AR in HuVEC cells, single concentration (electroporation, qRT-PCR RTS3559); format: cell-based; settings: 1,000 nM ASO, ~24 h, Table 13
Method in brief: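 HuVEC cells electroporated with antisense oligonucleotides at a single concentration. AR mRNA quantified by qRT-PCR using human primer-probe set RTS3559 and normalised to total RNA content by RIBOGREEN.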

[5] = 46.9 nM, HuVEC, ~16 h, Table 15
[6] = 187.5 nM, HuVEC, ~16 h, Table 15
[7] = 750.0 nM, HuVEC, ~16 h, Table 15
[8] = 3000.0 nM, HuVEC, ~16 h, Table 15

In the case of “579671 (antisense eT*kT*kG*eA*kT*kT*dT*dA*dA*dT*dG*dG*dT*kT*kG*k[5mC]) [compound 579671]”, the “percent inhibition of AR” value (AR mRNA [1]; 62.5 nM, HuVEC, ~16 h, Table 11) is reported as 6%, the “percent inhibition of AR” value (AR mRNA [1]; 125.0 nM, HuVEC, ~16 h, Table 11) is reported as 40% and the “percent inhibition of AR” value (AR mRNA [1]; 500.0 nM, HuVEC, ~16 h, Table 11) is reported as 57%. The “percent inhibition of AR” value (AR mRNA [1]; 1000.0 nM, HuVEC, ~16 h, Table 11) was 77%, the IC50 (AR mRNA [1]; HuVEC, ~16 h, Table 11) was 288 nM and the “Percent inhibition of AR mRNA” value (AR mRNA [2]; 0.02 μM) was 15%. The “Percent inhibition of AR mRNA” value (AR mRNA [2]; 0.1 μM) was 0%, the “Percent inhibition of AR mRNA” value (AR mRNA [2]; 0.5 μM) was 19% and the “Percent inhibition of AR mRNA” value (AR mRNA [2]; 10 μM) was 71%. For the same substance, the “Percent Inhibition of AR mRNA relative to the PBS control, Heart” value (AR mRNA [3]; weeks 1 to 6, Heart) was 24%, the “Percent Inhibition of AR mRNA relative to the PBS control, Kidney” value (AR mRNA [3]; weeks 1 to 6, Kidney) was 53% and the “Percent Inhibition of AR mRNA relative to the PBS control, Liver” value (AR mRNA [3]; weeks 1 to 6, Liver) was 33%. The “Percent Inhibition of AR mRNA relative to the PBS control, Skeletal Muscle” value (AR mRNA [3]; weeks 1 to 6, Skeletal Muscle) was 31%.
For “586124 (kG*kA*kT*dT*dT*dA*dA*dT*dG*dG*dT*dT*dG*k[5mC]*kA*kA; further chemistry not given here) [compound 586124]”, the “% inhibition” value (AR mRNA [4]) was 82%, the “percent inhibition of AR” value (AR mRNA [1]; [5]) was 28% and the “percent inhibition of AR” value (AR mRNA [1]; [6]) was 47%. The “percent inhibition of AR” value (AR mRNA [1]; [7]) was 84%, the “percent inhibition of AR” value (AR mRNA [1]; [8]) was 94% and the IC50 (AR mRNA [1]; HuVEC cells, electroporation) was 130 nM. The “inhibition of AR mRNA at 46.9 nM” value (AR mRNA [1]; HuVEC cells, electroporation) was 28%, the “inhibition of AR mRNA at 187.5 nM” value (AR mRNA [1]; HuVEC cells, electroporation) was 47% and the “inhibition of AR mRNA at 750.0 nM” value (AR mRNA [1]; HuVEC cells, electroporation) was 84%. For the same substance, the “inhibition of AR mRNA at 3000.0 nM” value (AR mRNA [1]; HuVEC cells, electroporation) was 94%, the IC50 (AR mRNA [1]; HuVEC, ~16 h, Table 15) was 130 nM and the “Percent inhibition of AR mRNA” value (AR mRNA [2]; 0.02 μM) was 0%. The “Percent inhibition of AR mRNA” value (AR mRNA [2]; 0.1 μM) was 0%, the “Percent inhibition of AR mRNA” value (AR mRNA [2]; 0.5 μM) was 19% and the “Percent inhibition of AR mRNA” value (AR mRNA [2]; 10 μM) was 82%.
For “586227 (kT*kG*kA*kT*kT*dT*dA*dA*dT*dG*dG*dT*dT*kG*k[5mC]*kA; antisense) [compound 586227]”, the “% inhibition” value (AR mRNA [4]) was 87%, the “percent inhibition of AR” value (AR mRNA [1]; [5]) was 20% and the “percent inhibition of AR” value (AR mRNA [1]; [6]) was 60%. For the same substance, the “percent inhibition of AR” value (AR mRNA [1]; [7]) was 88%, the “percent inhibition of AR” value (AR mRNA [1]; [8]) was 96% and the IC50 (AR mRNA [1]; HuVEC cells, electroporation) was 130 nM. The “inhibition of AR mRNA at 46.9 nM” value (AR mRNA [1]; HuVEC cells, electroporation) was 20%, the “inhibition of AR mRNA at 187.5 nM” value (AR mRNA [1]; HuVEC cells, electroporation) was 60% and the “inhibition of AR mRNA at 750.0 nM” value (AR mRNA [1]; HuVEC cells, electroporation) was 88%. The “inhibition of AR mRNA at 3000.0 nM” value (AR mRNA [1]; HuVEC cells, electroporation) was 96%, the IC50 (AR mRNA [1]; HuVEC, ~16 h, Table 15) was 130 nM and the “Percent inhibition of AR mRNA” value (AR mRNA [2]; 0.02 μM) was 0%. The “Percent inhibition of AR mRNA” value (AR mRNA [2]; 0.1 μM) was 0%, the “Percent inhibition of AR mRNA” value (AR mRNA [2]; 0.5 μM) was 14% and the “Percent inhibition of AR mRNA” value (AR mRNA [2]; 10 μM) was 59%.
